# Test results: patent US9034303B2, “Neuroprotective and neuro-restorative iron chelators and monoamine oxidase inhibitors and uses thereof” (priority 2010, dated 2015)
# Key:
# MAO-A = MAO-A (Mus musculus (Mouse), UniProt Q64133); type: in vivo, mice
# Experimental: For the MAO-inhibition study, mice (6 mice in each group) were injected intraperitoneally (i.p.) with compound 3 at the dosage of 5 or 10 mg/kg; or with M30 at the dosage of 10 mg/kg. Control mice received saline (0.1 mL) i.p. One hour later the mice were killed by cervical dislocation, while striatum and small intestine were removed rapidly and frozen in liquid nitrogen for further analysis. FIGS. 3 and 4 show MAO-A/MAO-B in vivo activity of compound 3 compared to the activity of M30. FIG. 3 presents an MAO inhibition in striatum, and FIG. 4 presents an MAO inhibition in intestine. The percent inhibition was computed based on comparison to control animals.
# in vitro = conditions: human
# Experimental: (§1) The cytotoxicity of compound 3 was assessed in vitro using two standard cell lines, HepG2, derived from a human hepatocellular carcinoma, and SH-SY5Y, derived from a human neuroblastoma, both in the presence and absence of excess iron.
# (§2) HepG2 cells were maintained at ˜5% CO2, 37° C., and 95% relative humidity in minimal essential media (MEM) supplemented with 10% fetal bovine serum plus 0.1 mM non-essential amino acids, 2 mM L-glutamine, and penicillin/streptomycin. SH-SY5Y cells were maintained at ˜5% CO2, 37° C., and 95% relative humidity in a mixture of minimal essential media (MEM) and F12 K media (1:1, v:v) supplemented with 10% fetal bovine serum plus 0.1 mM non-essential amino acids, 2 mM L-glutamine, and penicillin/streptomycin. The cells were subcultured every two to three days and plated in tissue culture treated opaque white 96-well plates at a density of 1×10^4 cells/well and incubated at ˜5% CO2, 37° C., and 95% relative humidity overnight prior to initiation of the assay.
# (§3) A series of DMSO stocks of the test article at 100× of the final concentration were diluted 1:100 with fresh culture media (final DMSO concentration was 1%). The media from the plated cells was removed and replaced with 100 μL of media containing test article or tamoxifen with final concentrations ranging between 0.01 to 1000 μM in triplicate. Wells containing no cells were used as background controls. Tamoxifen was used as a known positive control and DMSO alone was used as a vehicle control. The cells were incubated for four hours at ˜5% CO2, 37° C., and 95% relative humidity.
# (§4) Cell viability was determined using a commercially available kit to determine ATP levels by luminescence. Briefly, the buffer and lyophilized substrate from the kit were equilibrated to room temperature. The buffer was used to reconstitute the substrate just prior to addition to the wells of the cell plate (100 μL per well). The plate was placed into the Tecan Infinite M200 plate reader, agitated for 10 minutes followed by a 10 minute wait period, then read using an integration time of 0.5 seconds with no attenuation.
# (§5) The mean luminescence from the test article treated cells was compared to that treated by DMSO only.
# SHSY-5Y cells = assay: in vitro; conditions: read-out: LC50 (μM) SHSY-5Y; four hours incubation
# Experimental: as §1, §2, §3, §4, §5
# rat brain MAO-B = rat brain MAO-B (Rattus norvegicus (Rat), UniProt P19643); assay: In vitro inhibition of rat brain MAO-B (14C-PEA substrate); type: biochemical
# Experimental: Rats are decapitated and the brains quickly taken into a weighted ice-cold sucrose buffer (0.32 M) and their weights determined. All subsequent procedures are performed at 0° C. The brains are homogenized in 0.32 M sucrose (one part tissue to 20 parts sucrose) in a Teflon glass homogenizer followed by the addition of sucrose buffer to a final concentration of 10% homogenate. The homogenates are centrifuged at 600 g for 15 min. The supernatant fractions are taken out and centrifuged at 4500 g for 30 min, the pellet diluted in 0.32 M sucrose buffer and kept frozen for later assaying of MAO.
# MAO-A and MAO-B activities are determined in rat brain homogenate in vitro following incubation with varying concentrations of the test compounds.
# The in vitro inhibitory activity of the compounds is tested against rat brain MAO-B. The test compounds are added to buffer containing 10^−7 M clorgylin and are incubated with the tissue homogenate for 30 or 60 min at 37° C. before addition of ^14C-PEA.
# The test compound was added to a suitable dilution of the enzyme preparation (70 μg protein for MAO-B and 150 μg MAO-A assay) in 0.1 M phosphate buffer (pH 7.4). The mixture was incubated together with […], a specific inhibitor of MAO-B (for determination of MAO-A) or 0.05 M clorgylin, a specific inhibitor of MAO-A (for determination of MAO-B). Incubation was carried for 0.5 or 1 h at 37° C. before addition of ^14C-5-hydroxytryptamine binoxalate (5-HT) (100 or 400 μM) for determination of MAO-A, or ^14C-phenylethylamine (^14C-PEA) 100 or 400 μM for determination of MAO-B, and incubation continued for 30 min or 20 min, respectively. The reaction was stopped with 2 M ice-cold citric acid, and the metabolites were extracted and determined by liquid-scintillation counting in cpm units.
# The reaction was stopped with 2 M ice-cold citric acid, and the metabolites were extracted with ethyl acetate and levels of radioactivity were determined by liquid-scintillation counting in CPM units. All assays were performed at least in duplicate and outcome was expressed as a mean±SEM. Data were analyzed by a Student's t test. Variations were considered statistically significant at a p value of 0.05.
# MAO-A and MAO-B activity was measured using radioactive substrates. The substrate for MAO-A was 5 HT and for MAO-B was PEA. When measuring the activity of MAO-A, the MAO-B activity was inhibited with deprenyl and when measuring the activity of MAO-B the activity of MAO-A was inhibited with clorgylin. Blank samples were produced using TCP to inhibit both of the enzymes. The metabolites were extracted to toluene and read in a β-counter. The results are expressed in relative activity and normalized to the amount of protein in the tissue.
# [1] = Plasma stability in vitro in human blood plasma (LC-MS/MS); type: in vitro ADME; conditions: 10 μM, ~37° C.
# Experimental: The stability of the compound 3 was evaluated in human blood plasma. Human plasma was purchased from a commercial source (Bioreclamation, Inc., East Meadow, N.Y.). The plasma was prepared from blood collected using sodium fluoride/potassium oxalate as the anticoagulant. The plasma was stored at −20° C. prior to use. The plasma, once thawed for use, was centrifuged at ˜4000 rpm for five minutes and transferred to a new tube to remove any precipitate. The pH of the plasma was adjusted to 7.4. Compound 3 was added to plasma samples to achieve a final concentration of 10 μM and distributed into the required number of low retention tubes (triplicate tubes for each timepoint) for incubation at ˜37° C. in a water bath. Incubations were terminated at 0, 1, and 6 hours by the addition of three volumes of cold acetonitrile. The supernate after centrifugation was subjected to LC-MS/MS analysis. Stability of the test article was assessed by comparison of the peak area at one and six hours to that at time zero.
# MAO-A, sequence (Q64133 whole entry): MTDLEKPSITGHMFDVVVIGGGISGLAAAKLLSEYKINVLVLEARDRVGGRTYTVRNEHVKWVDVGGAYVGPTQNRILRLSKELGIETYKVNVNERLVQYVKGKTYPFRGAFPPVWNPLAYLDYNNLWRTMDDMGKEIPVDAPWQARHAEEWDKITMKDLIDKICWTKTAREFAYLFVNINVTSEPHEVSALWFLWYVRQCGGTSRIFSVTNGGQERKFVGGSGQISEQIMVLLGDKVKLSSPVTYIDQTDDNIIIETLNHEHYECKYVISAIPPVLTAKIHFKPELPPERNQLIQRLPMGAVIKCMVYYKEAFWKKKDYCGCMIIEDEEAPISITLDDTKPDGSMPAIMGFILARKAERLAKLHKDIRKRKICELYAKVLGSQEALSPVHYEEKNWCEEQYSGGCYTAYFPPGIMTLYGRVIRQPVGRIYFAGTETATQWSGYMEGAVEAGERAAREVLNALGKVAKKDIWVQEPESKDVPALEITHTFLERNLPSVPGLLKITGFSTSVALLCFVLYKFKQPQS
# rat brain MAO-B, sequence (P19643 whole entry): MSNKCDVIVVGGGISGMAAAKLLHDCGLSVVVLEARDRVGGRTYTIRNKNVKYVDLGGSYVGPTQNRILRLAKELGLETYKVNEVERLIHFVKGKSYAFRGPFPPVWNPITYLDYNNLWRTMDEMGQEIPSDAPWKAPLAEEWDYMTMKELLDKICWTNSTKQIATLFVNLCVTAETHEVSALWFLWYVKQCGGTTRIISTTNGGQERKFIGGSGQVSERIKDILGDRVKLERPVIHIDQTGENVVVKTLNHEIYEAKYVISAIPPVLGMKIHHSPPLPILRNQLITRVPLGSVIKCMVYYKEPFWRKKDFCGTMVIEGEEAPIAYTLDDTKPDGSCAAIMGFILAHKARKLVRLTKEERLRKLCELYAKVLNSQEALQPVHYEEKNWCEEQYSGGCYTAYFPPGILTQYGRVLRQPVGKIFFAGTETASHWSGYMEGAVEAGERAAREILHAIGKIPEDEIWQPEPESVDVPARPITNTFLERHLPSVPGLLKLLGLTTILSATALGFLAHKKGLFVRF
smiles,measurement,setting,value
"C#CCN(C)CCc1ccc(O)c2ncccc12 [Compound 3, 5-[2-(methyl-2-propyn-1-ylamino)ethyl]-8-quinolinol]",MAO-A inhibition in striatum,"MAO-A; mice, single i.p. injection, 5 or 10 mg/kg, one hour later",inhibited in a dose responsive fashion
same,MAO-A inhibition in intestine,"MAO-A; mice, single i.p. injection, small intestine, one hour later",Reduced inhibition in the intestinal tissue versus striatal tissue
same,Penetration of brain tissue,"MAO-A; mouse, in vivo, ip",able to penetrate brain tissue
same,CC50 at 4 h,in vitro,> 1000 µM
same,CC50 at 4 h,"in vitro; LC50 (μM) SHSY-5Y, four hours incubation",865 µM
same,CC50,SHSY-5Y cells,885 µM
same,IC50,rat brain MAO-B,10 to 30 nM
same,Inhibition of rat brain MAO-B in vitro (in words),rat brain MAO-B; rat brain,potent inhibitors
same,Amount of compound 3 in human blood plasma,"[1]; 0 hour, reference time point",100%
same,Amount of compound 3 in human blood plasma,[1]; 1 hour,86%
same,Amount of compound 3 in human blood plasma,[1]; 6 hours,93%
